Measured values: patent US20250276984A1, “SOLID STATE FORMS OF HER2 INHIBITORS” (Iambic Therapeutics, Inc., priority 2024, published 2025)
In brackets after ≈: the same amount, converted by molar mass.

Columns and labels:
[1] = Dynamic vapor sorption (DVS); assay type: physicochemical; design: Hysteresis: unit not given here
Procedure: By DVS, a weight gain of 2.8 weight %, consistent with a gain of 0.9 mol water, was observed from 6% to 95% RH. A complete desorption was observed from 95% to 6% RH. No significant hysteresis was observed. The resulting crystalline material was analyzed by XRPD and shown to the Form A.

[2] = Solubility estimated by solvent aliquot addition at ambient temperature; assay type: physicochemical; conditions: thermodynamic from solid
Excerpt: Solubilities were estimated by solvent aliquot addition at ambient temperature and reported to the nearest whole number; if complete dissolution was achieved by one aliquot addition, the value is reported as “>”; if solids were present, the value is reported as “<”. The actual solubility may be larger than the value calculated because of the use of solvent aliquots that were too large or due to a slow rate of dissolution.

[3] = Cycle 1, target RH 95.0%, sample RH 95.4%

Compound: Cc1cc(Nc2ncnn3ccc(C4CCN(C(=O)/C=C/CN(C)C)CC4)c23)ccc1Oc1ccn2ncnc2c1 [Compound 1 Form A, (E)-1-(4-(4-((4-([1,2,4]triazolo[1,5-a]pyridin-7-yloxy)-3-methylphenyl)amino)pyrrolo[2,1-f][1,2,4]triazin-5-yl)piperidin-1-yl)-4-(dimethylamino)but-2-en-1-one]
- Sorp Mass Change ([1]; Cycle 1, target RH 5.0%, sample RH 5.5%): 0.004%
- Desorp Mass Change ([1]; Cycle 1, target RH 5.0%, sample RH 5.8%): −0.017%
- Hysteresis ([1]; Cycle 1, target RH 15.0%): −0.006
- Desorp Mass Change ([1]; Cycle 1, target RH 15.0%, sample RH 15.3%): 0.271%
- Sorp Mass Change ([1]; Cycle 1, target RH 15.0%, sample RH 15.5%): 0.277%
- Hysteresis ([1]; Cycle 1, target RH 25.0%): 0.039
- Sorp Mass Change ([1]; Cycle 1, target RH 25.0%, sample RH 24.6%): 0.609%
- Desorp Mass Change ([1]; Cycle 1, target RH 25.0%, sample RH 25.0%): 0.648%
- Hysteresis ([1]; Cycle 1, target RH 35.0%): 0.075
- Sorp Mass Change ([1]; Cycle 1, target RH 35.0%, sample RH 34.3%): 1.034%
- Desorp Mass Change ([1]; Cycle 1, target RH 35.0%, sample RH 34.8%): 1.109%
- Hysteresis ([1]; Cycle 1, target RH 45.0%): 0.104
- Sorp Mass Change ([1]; Cycle 1, target RH 45.0%, sample RH 44.4%): 1.470%
- Desorp Mass Change ([1]; Cycle 1, target RH 45.0%, sample RH 44.9%): 1.573%
- Hysteresis ([1]; Cycle 1, target RH 55.0%): 0.123
- Sorp Mass Change ([1]; Cycle 1, target RH 55.0%, sample RH 54.3%): 1.811%
- Desorp Mass Change ([1]; Cycle 1, target RH 55.0%, sample RH 54.8%): 1.934%
- Hysteresis ([1]; Cycle 1, target RH 65.0%): 0.112
- Sorp Mass Change ([1]; Cycle 1, target RH 65.0%, sample RH 64.4%): 2.087%
- Desorp Mass Change ([1]; Cycle 1, target RH 65.0%, sample RH 64.9%): 2.199%
- Hysteresis ([1]; Cycle 1, target RH 75.0%): 0.116
- Sorp Mass Change ([1]; Cycle 1, target RH 75.0%, sample RH 74.5%): 2.315%
- Desorp Mass Change ([1]; Cycle 1, target RH 75.0%, sample RH 75.1%): 2.431%
- Hysteresis ([1]; Cycle 1, target RH 85.0%): 0.096
- Sorp Mass Change ([1]; Cycle 1, target RH 85.0%, sample RH 85.1%): 2.559%
- Desorp Mass Change ([1]; Cycle 1, target RH 85.0%, sample RH 86.2%): 2.656%
- Desorp Mass Change [1, 3]: 2.849%
- Sorp Mass Change [1, 3]: 2.849%
- water gain consistent with DVS weight gain ([1]; from 6% to 95% RH): 0.9 mol water
- weight gain by DVS ([1]; from 6% to 95% RH): 2.8 weight %
- solubility ([2]; aqueous with cosolvent or surfactant or cyclodextrin, 10:90 dioxane/water v/v): < 1 mg/mL
- solubility ([2]; aqueous with cosolvent or surfactant or cyclodextrin, 20:80 MeOH/water v/v): < 1 mg/mL
- solubility ([2]; aqueous with cosolvent or surfactant or cyclodextrin, 35:65 THF/water v/v): 17 mg/mL (≈ 30.8 mM)
- solubility ([2]; aqueous with cosolvent or surfactant or cyclodextrin, 50:50 ACN/water v/v): > 72 mg/mL
- solubility ([2]; aqueous with cosolvent or surfactant or cyclodextrin, 50:50 DMAc/water v/v): 10 mg/mL (≈ 18.1 mM)
- solubility ([2]; aqueous with cosolvent or surfactant or cyclodextrin, 50:50 MeOH/water v/v): 4 mg/mL (≈ 7.25 mM)
- solubility ([2]; aqueous with cosolvent or surfactant or cyclodextrin, 50:50 THF/water v/v): > 31 mg/mL
- solubility ([2]; aqueous with cosolvent or surfactant or cyclodextrin, 50:50 acetone/water v/v): 24 mg/mL (≈ 43.5 mM)
- solubility ([2]; aqueous with cosolvent or surfactant or cyclodextrin, 50:50 dioxane/water v/v): 29 mg/mL (≈ 52.6 mM)
- solubility ([2]; organic solvent or mixture, 2-MeTHF): 5 mg/mL (≈ 9.06 mM)
- solubility ([2]; organic solvent or mixture, 10:90 chloroform/IPA v/v): 27 mg/mL (≈ 48.9 mM)
- solubility ([2]; organic solvent or mixture, 20:80 MeOH/EtOAc v/v): > 51 mg/mL
- solubility ([2]; organic solvent or mixture, 30:70 DCM/toluene v/v): 9 mg/mL (≈ 16.3 mM)
- solubility ([2]; organic solvent or mixture, 30:70 DMAc/MTBE v/v): 29 mg/mL (≈ 52.6 mM)
- solubility ([2]; organic solvent or mixture, 30:70 EtOH/toluene v/v): > 88 mg/mL
- solubility ([2]; organic solvent or mixture, 50:50 DCM/toluene v/v): 50 mg/mL (≈ 90.6 mM)
- solubility ([2]; organic solvent or mixture, 50:50 DMAc/toluene v/v): > 28 mg/mL
- solubility ([2]; organic solvent or mixture, 50:50 EtOAc/IPA v/v): 17 mg/mL (≈ 30.8 mM)
- solubility ([2]; organic solvent or mixture, 50:50 EtOAc/MIBK v/v): 4 mg/mL (≈ 7.25 mM)
- solubility ([2]; organic solvent or mixture, 70:30 THF/heptane v/v): 10 mg/mL (≈ 18.1 mM)
- solubility ([2]; organic solvent or mixture, ACN): 7 mg/mL (≈ 12.7 mM)
- solubility ([2]; organic solvent or mixture, Acetone): 15 mg/mL (≈ 27.2 mM)
- solubility ([2]; organic solvent or mixture, DCM): > 88 mg/mL
- solubility ([2]; organic solvent or mixture, DMAc): > 110 mg/mL
- solubility ([2]; organic solvent or mixture, EtOAc): 3 mg/mL (≈ 5.44 mM)
- solubility ([2]; organic solvent or mixture, IPA): 3 mg/mL (≈ 5.44 mM)
- solubility ([2]; organic solvent or mixture, MIBK): 3 mg/mL (≈ 5.44 mM)
- solubility ([2]; organic solvent or mixture, MTBE): < 1 mg/mL
- solubility ([2]; organic solvent or mixture, MeOH): > 116 mg/mL
- solubility ([2]; organic solvent or mixture, THF): 38 mg/mL (≈ 68.9 mM)
- solubility ([2]; organic solvent or mixture, chloroform): > 100 mg/mL
- solubility ([2]; organic solvent or mixture, cyclohexane): < 1 mg/mL
- solubility ([2]; organic solvent or mixture, dioxane): 32 mg/mL (≈ 58 mM)
- solubility ([2]; organic solvent or mixture, heptane): < 2 mg/mL
- solubility ([2]; organic solvent or mixture, toluene): < 1 mg/mL
- solubility ([2]; water): < 1 mg/mL
